Results taken from patent publication US20050009797A1, “Androstane derivative having substituent in 7- abd 17--positions” (priority 2001, published 2005).
Like-named read-outs stand apart in the source and are kept apart here.

What was measured:
human androgen receptor [1] = target: T1, human androgen receptor (Homo sapiens, UniProt P10275); assay: Androgen receptor reporter gene assay, agonistic effects (Example 25); type: cell-based; conditions: HeLa cells transfected with MMTV-Luc and pSG5-hAR; 1-10000 nmol/L; 48 h; no DHT
T1 construct: expressed in transfected cells; host or cells: HeLa cells
T1 sequence (P10275 1-920): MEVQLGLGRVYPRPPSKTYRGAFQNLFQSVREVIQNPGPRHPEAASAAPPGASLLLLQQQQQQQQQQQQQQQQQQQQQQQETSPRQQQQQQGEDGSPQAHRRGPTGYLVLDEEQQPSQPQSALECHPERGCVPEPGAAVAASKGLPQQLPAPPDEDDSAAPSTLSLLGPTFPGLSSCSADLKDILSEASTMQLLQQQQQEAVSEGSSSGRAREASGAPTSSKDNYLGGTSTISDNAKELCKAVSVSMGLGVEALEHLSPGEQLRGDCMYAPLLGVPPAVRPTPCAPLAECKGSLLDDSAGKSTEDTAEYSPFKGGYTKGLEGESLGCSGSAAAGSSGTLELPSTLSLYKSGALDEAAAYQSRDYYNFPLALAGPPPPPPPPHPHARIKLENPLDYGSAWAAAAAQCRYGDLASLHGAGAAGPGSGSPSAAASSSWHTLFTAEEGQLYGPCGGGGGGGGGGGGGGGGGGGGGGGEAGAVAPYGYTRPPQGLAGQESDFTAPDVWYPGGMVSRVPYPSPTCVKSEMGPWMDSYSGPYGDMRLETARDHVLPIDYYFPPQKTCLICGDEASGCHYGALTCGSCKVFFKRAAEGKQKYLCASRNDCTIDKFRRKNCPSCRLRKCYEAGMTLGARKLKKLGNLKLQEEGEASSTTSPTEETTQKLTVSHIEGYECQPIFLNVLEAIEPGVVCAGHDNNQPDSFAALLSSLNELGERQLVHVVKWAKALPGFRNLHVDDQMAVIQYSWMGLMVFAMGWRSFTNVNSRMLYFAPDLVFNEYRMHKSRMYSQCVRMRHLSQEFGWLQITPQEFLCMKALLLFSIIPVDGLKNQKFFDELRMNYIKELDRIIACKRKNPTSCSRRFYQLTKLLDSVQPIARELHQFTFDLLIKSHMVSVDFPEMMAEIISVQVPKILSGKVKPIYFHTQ
Description: Twenty-four hours before transfection, 1.0×10^5 HeLa cells (purchased from Dainippon Pharmaceutical Co., Ltd.) are cultured in a 12-well microplate containing phenol red-free Dulbecco's Modified Eagle Medium (phenol red-free DMEM) supplemented with charcoal-treated FBS (DCC-FBS; 5%). […] Transfection is carried out in phenol red-free DMEM medium using 3 μL/well lipofectamine (Gibco BRL). Nine hours after transfection, the medium is replaced by phenol red-free DMEM/3% DCC-FBS supplemented with 10 μmol/L of the compound of Formula (I) or a salt or ester thereof according to the present invention. Forty-eight hours after replacement of the medium, the transcriptional activity is determined by a Dual-Luciferase Reporter Assay System (promega) according to the following equation: (transcriptional activity)=(firefly luciferase activity)/(Renilla luciferase activity). To effect this assay, reference may be made to J. Biol. Chem., vol. 270, p.
(§1) Twenty-four hours before transfection, 1.0×10^5 HeLa cells were cultured in a 12-well microplate containing phenol red-free DMEM/5% DCC-FBS. The HeLa cells were then transfected with 500 ng/well MMTV-Luc vector, 100 ng/well pSG5-hAR and 5 ng/well Renilla Luc vector. Transfection was carried out in phenol red-free DMEM medium using […] lipofectamine. […] Forty-eight hours after replacement of the medium, the transcriptional activity was determined by a Dual-Luciferase Reporter Assay System according to the following equation: (transcriptional activity)=(firefly luciferase activity)/(Renilla luciferase activity).
The transcriptional activity thus determined was used to calculate agonist activity according to the following equation, which in turn was used to calculate a FI5 value (i.e., a concentration at which the compound provides a 5-fold increase in transcriptional activity as compared to the value obtained in the absence of the compound). Agonist activity=(transcriptional activity in the presence of the compound)/(transcriptional activity in the absence of the compound)

human androgen receptor [2] = target: T1, human androgen receptor; assay: Androgen receptor reporter gene assay, antagonistic effects (Example 26); type: cell-based
Description: Twenty-four hours before transfection, 1.0×10^5 HeLa cells are cultured in a 12-well microplate containing phenol red-free DMEM/5% DCC-FBS. The HeLa cells are then transfected with 500 ng/well MMTV-Luc vector, 100 ng/well pSG5-hAR and 5 ng/well Renilla Luc vector. Transfection is carried out in phenol red-free DMEM medium using 3 μL/well lipofectamine. Nine hours after transfection, the medium is replaced by phenol red-free DMEM/3% DCC-FBS supplemented with 0.1 nmol/L DHT and 1.0 μmol/L of the compound of Formula (I) or a salt or ester thereof according to the present invention. Forty-eight hours after replacement of the medium, the transcriptional activity is determined by a Dual-Luciferase Reporter Assay System according to the following equation: (transcriptional activity)=(firefly luciferase activity)/(Renilla luciferase activity). To effect this assay, reference may be made to J. Biol. Chem., vol. 270, p.
as §1

castrated rats = castrated rats continuously administered for two weeks; cited from earlier work
[3] = Metabolic stability in rat liver microsome with β-NAD+ (Example 27); type: in vitro ADME; conditions: 37° C.
Description: A test tube containing 0.1 mol/L potassium phosphate buffer (345 μL, pH 7.4) was cooled on ice, followed by addition of 5 mg/mL rat liver microsome (50 μL), 0.1 mol/L magnesium chloride (50 μL) and a test compound dissolved in ethanol (adjusted to 1 mg/mL, 5 μL). After pre-incubation at 37° C. for 5 minutes, 10 mM β-Nicotinamide-adenine dinucleotide, oxidized form (β-NAD^+) was added to initiate the reaction. The reaction was continued at 37° C. for 0, 5 and 15 minutes, followed by addition of 0.1 mol/L hydrochloric acid (100 μL) and diethyl ether (5 mL) to stop the reaction. The reaction mixture was stirred for 10 minutes and then centrifuged at 3000 rpm for 10 minutes. The upper organic layer (4.5 mL) was transferred to another test tube, evaporated to dryness under a nitrogen stream, dissolved in 40% acetonitrile (200 μL) and then measured for the peak area of the test compound by high performance liquid chromatography. The residual percentage of the test compound at a given point in time was calculated using the following equation: Residual (%)=[(peak area of the test compound at a given time point)/(peak area of the test compound at 0 minutes)]×100

androgen receptor = androgen receptor (Homo sapiens, UniProt P10275); conditions: concentration of 10 μM; cited from earlier work
[4] = prostate cancer patients undergoing treatment with flutamide; cited from earlier work
[5] = 50% inhibition of transcriptional activity induced by DHT (0.1 nmol/L), HeLa cells transfected with MMTV-Luc and pSG5-hAR, 48 h, read-out: IC50 value

CC12CCC(=O)C=C1CC(CCCc1cccc(CCCCC(=O)O)c1)C1C2CCC2(C)C1CCC2(C)O (stereo not shown) [Example 24]
FI5 value (concentration giving 5-fold increase in transcriptional activity) (human androgen receptor [1]): ND (a FI5 value cannot be calculated because the compound provides less than a 5-fold increase in transcriptional activity even at a concentration of 10000 nM) | IC50 (human androgen receptor [2]; [5]): 4040 nM

CC12CCC(=O)C=C1CC(CCCCc1cccc(OCCCCCC(=O)O)c1)C1C2CCC2(C)C1CCC2(C)O (stereo not shown) [Example 13]
FI5 value (concentration giving 5-fold increase in transcriptional activity) (human androgen receptor [1]): ND (a FI5 value cannot be calculated because the compound provides less than a 5-fold increase in transcriptional activity even at a concentration of 10000 nM) | IC50 (human androgen receptor [2]; [5]): 529 nM

CC(=O)O[C@]1(C(C)=O)CC[C@H]2[C@@H]3C=C(Cl)C4=CC(=O)[C@@H]5C[C@@H]5[C@]4(C)[C@H]3CC[C@@]21C [cyproterone acetate]
prostate weight (castrated rats): increase in their prostate weight

CC12CCC(=O)C=C1CC(CCCc1cccc(OCCCC(=O)O)c1)C1C2CCC2(C)C1CCC2(C)O (stereo not shown) [Example 20]
FI5 value (concentration giving 5-fold increase in transcriptional activity) (human androgen receptor [1]): ND (a FI5 value cannot be calculated because the compound provides less than a 5-fold increase in transcriptional activity even at a concentration of 10000 nM) | IC50 (human androgen receptor [2]; [5]): 815 nM

CN(C)C(=O)CCCCCCC[C@@H]1C[C@H]2CC(=O)CC[C@]2(C)[C@H]2CC[C@]3(C)[C@@H](O)CC[C@H]3[C@H]12 [Comparative Example, 17β-hydroxy-7α-{7-(N,N-dimethylaminocarbonyl)heptyl}-5α-androstan-3-one, reference compound]
Residual (%) 5 minutes [3]: 59.4% | Residual (%) 15 minutes [3]: 15.1%

C[C@]12CCC(=O)C=C1C[C@@H](CCCCc1cccc(OCCCCC(=O)O)c1)[C@@H]1[C@@H]2CC[C@@]2(C)[C@H]1CC[C@]2(C)O [Example 1, 17β-hydroxy-17α-methyl-7α-(4-(3-(4-carboxy-butoxy)phenyl)butyl)-4-androsten-3-one]
FI5 value (concentration giving 5-fold increase in transcriptional activity) (human androgen receptor [1]): ND* (a FI5 value cannot be calculated because the compound provides less than a 5-fold increase in transcriptional activity even at a concentration of 10000 nM) | IC50 (human androgen receptor [2]; [5]): 333 nM

CC(C)(O)C(=O)Nc1ccc([N+](=O)[O-])c(C(F)(F)F)c1 [Hydroxyflutamide]
effect on transcriptional activity of androgen receptor (androgen receptor): enhance the transcriptional activity of androgen receptor | blood hydroxyflutamide levels [4]: several

CC12CCC(=O)C=C1CC(CCCCCc1ccc(OCC(=O)O)cc1)C1C2CCC2(C)C1CCC2(C)O (stereo not shown) [Example 7]
FI5 value (concentration giving 5-fold increase in transcriptional activity) (human androgen receptor [1]): ND (a FI5 value cannot be calculated because the compound provides less than a 5-fold increase in transcriptional activity even at a concentration of 10000 nM) | IC50 (human androgen receptor [2]; [5]): 5140 nM

CC12CCC(=O)C=C1CC(CCCc1ccc(CCCCC(=O)O)cc1)C1C2CCC2(C)C1CCC2(C)O (stereo not shown) [Example 22]
FI5 value (concentration giving 5-fold increase in transcriptional activity) (human androgen receptor [1]): ND (a FI5 value cannot be calculated because the compound provides less than a 5-fold increase in transcriptional activity even at a concentration of 10000 nM) | IC50 (human androgen receptor [2]): 717 nM

C[C@]12CCC(=O)C=C1C[C@@H](CCCc1ccc(OCCCC(=O)O)cc1)[C@@H]1[C@@H]2CC[C@@]2(C)[C@H]1CC[C@]2(C)O [Example 18, 17β-hydroxy-17α-methyl-7α-(3-(4-(3-carboxy-propoxy)phenyl)propyl)-4-androsten-3-one]
Residual (%) 5 minutes [3]: 113.7% | Residual (%) 15 minutes [3]: 110.8% | FI5 value (concentration giving 5-fold increase in transcriptional activity) (human androgen receptor [1]): ND (a FI5 value cannot be calculated because the compound provides less than a 5-fold increase in transcriptional activity even at a concentration of 10000 nM) | IC50 (human androgen receptor [2]): 664 nM

CC(=O)O[C@]1(C(C)=O)CC[C@H]2[C@@H]3C=C(Cl)C4=CC(=O)CC[C@]4(C)[C@H]3CC[C@@]21C [chlormadinone acetate]
prostate weight (castrated rats): increase in their prostate weight
